Results reported in patent publication US12329755B2, “Bromodomain inhibitors to target therapy-resistant cancer” (University of Tennessee Research Foundation, priority 2019, dated 2025).

Experiments:
[1] = test system: LN229 TMZ-resistant glioma cell line; experiment: IncuCyte live cell imaging proliferation assay; format: cell-based
Experimental: (§1) FIG. 2A is a graph showing relative growth of temozolomide (TMZ)-resistant glioma cells (LN229 cells) alone (control); after treatment with 100 micromolar (μM) TMZ; after treatment with a Brahma-related gene-1 bromodomain inhibitor (BRI), PFI-3 (1 μM); or after treatment with both TMZ and PFI-3 (combined).
as §1, with “2B” for “2A”, “IV-073” for “PFI-3”
as §1, with “2C” for “2A”, “LN229 Temozolomide” for “temozolomide”, “cells” for “cells (LN229 cells)”, “IV-077” for “PFI-3”
as §1, with “2D” for “2A”, “LN229 Temozolomide” for “temozolomide”, “cells” for “cells (LN229 cells)”, “IV-085” for “PFI-3”
To determine whether PFI-3 (also called YH-IV-081) and its analogs (referred to herein as “PAs”) enhanced TMZ sensitivity IncuCyte live cell imaging proliferation assays (high throughput system) were performed with the LN229 TMZ-resistant glioma cell line.

bromodomain of BRG1 = biological target: T1, bromodomain of BRG1 (Homo sapiens, UniProt P51532); experiment: thermal shift assay of the BRG1 bromodomain in MT330 GBM cells; format: binding; settings: 44.5° C. to 55.6° C.; PFI-3 30 μM, IV-073 20 μM, two hours; compared to DMSO
T1 construct: The assay involved the use of the bromodomain of BRG1 in MT330 GBM cells; expressed in transfected cells; host or cells: MT330 GBM cells
Experimental: FIG. 3 is a series of immunoblot images showing the effects of Brahma-related gene-1 bromodomain inhibitors (BRIs) on the stability of the bromodomain of Brahma-related gene-1 in a thermal assay shift of the bromodomain in glioblastoma cells over a temperature range from 44.5 degrees Celsius (° C.) to 55.6° C. Cells were treated with (middle) PFI-3 (30 micromolar (μM)) for two hours or (right), a PFI-3 analog of the presently disclosed subject matter (IV-073) (20 μM) for two hours. For comparison, control cells treated with dimethyl sulfoxide (DMSO) are shown at […].
To further study the activity of the presently disclosed PFI-3 analogs, a thermal shift assay was employed. The assay involved the use of the bromodomain of BRG1 in MT330 GBM cells at temperatures ranging from 44.5° C. to 55.6° C.

X10 BTICs = settings: cited from earlier work
GFAP = settings: X16 BTICs; cited from earlier work
X16 BTICs = settings: cited from earlier work
[2] = test system: cancer cell lines (lung, synovial sarcoma, leukemia, and rhabdoid tumor cells); settings: panel of cancer cell lines; cited from earlier work
GBM cells = experiment: survival of mice after intracranial injection of GBM cells; format: in vivo; settings: combination with TMZ, intraperitoneal, 10 mg/kg body weight
Experimental: FIG. 6 is a graph showing the survival curves (percent survival versus days after treatment) of mice after intracranial injection of glioblastoma (GBM) cells and intraperitoneal injection of temozolomide (TMZ) or combinations of TMZ and a Brahma-related gene-1 bromodomain inhibitors (BRIs): PFI-3 or one of the presently disclosed PFI-3 analogs (PAs) IV-073 or IV-085. Five mice per group were treated with TMZ with or without the BRI (10 milligrams per kilogram (mg/kg) body weight.
TMZ with or without a BRI was also tested in mice after intercranial injection of GBM cells.

T1 sequence (P51532 1453-1564 limits assumed): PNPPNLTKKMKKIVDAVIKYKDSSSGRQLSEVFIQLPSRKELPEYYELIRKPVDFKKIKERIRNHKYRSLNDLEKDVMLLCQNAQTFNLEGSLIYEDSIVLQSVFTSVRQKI

Structure (SMILES): O=C(/C=C/N1C[C@H]2C[C@@H]1CN2c1ccccn1)c1ccccc1O [PFI-3, (E)-1-(2-hydroxyphenyl)-3-((1R,4R)-5-(pyridin-2-yl)-2,5-diazabicyclo[2.2.1]heptan-2-yl)prop-2-en-1-one]
- sensitization to TMZ ([1]; BRI 1 μM combined with 100 μM TMZ): potently sensitized
- effect on cell growth ([1]; BRI alone (1 μM)): relatively minor effects on cell growth
- stabilization of the BRG1 bromodomain (bromodomain of BRG1): stabilizes the BRG1 bromodomain
- sensitization to Carmustine (X10 BTICs; X10 BTICs, PFI-3 treatment): sensitized
- effect on X10 BTIC proliferation (X10 BTICs; combination of PFI-3 and TMZ): marked effect on X10 BTIC proliferation
- GFAP protein expression (GFAP): upregulated GFAP protein expression
- sensitization to Carmustine (X16 BTICs; X16 BTICs, PFI-3 treatment): sensitized
- effect on X16 BTIC proliferation (X16 BTICs; combination of TMZ and PFI-3, versus either agent alone): markedly greater effect on X16 BTIC proliferation than either agent alone
- proliferation or tumorgenicity [2]: not to inhibit the proliferation or tumorgenicity
- animal survival (GBM cells): enhanced animal survival
